According to patent publication US9757375B2, “Compounds that inhibit human DNA ligases and methods of treating cancer” (University of Maryland, Baltimore, priority 2007, dated 2017):
Where two headings read alike, the source gives them in different places.

How the values were obtained:
[1] = system: MCF7, HCT116, HeLa, and MCF10A cells; experiment: Survival assay on cell panel (FIG. 9); type: cell-based, human; details: Homo sapiens; cell line not stated
Excerpt: FIG. 9. […] A, effect of L67 (left) and L189 (right) on the survival of MCF7 (Δ), HCT116 (□), HeLa (⋄), and MCF10A (upsidedown triangle) cells. B, normal breast epithelial MCF10A cells (open symbols) and breast cancer MCF7 cells (filled symbols) in the absence (circles) or presence of 3 μmol/L of L67 (squares) were exposed to increasing concentrations of MMS (left). Normal breast epithelial MCF10A cells (open symbols) and colon cancer HCT116 cells (filled symbols) in the absence (circles) or presence of 20 μmol/L of L189 (squares) were exposed to increasing doses of ionizing radiation (right). C, hLigI (I), hLigIIIα (III), and hLigIV (IV) were detected in extracts (400 μg) of the indicated cell lines by immunoblotting. To control for extract loading β-actin was also detected by immunoblotting.
For survival assays, cells were plated in 6 well plates and grown either in the absence or presence of ligase inhibitors. Where indicated, either MMS (0-50 μM) was added to the medium or the cells were irradiated in a Cs-137 irradiator (0-2.5 Gy). After two weeks, colonies were stained with crystal violet (Sigma) and then counted.

T4 DNA ligase = molecular target: T1, T4 DNA ligase (Enterobacteria phage T4, UniProt P00970); experiment: High-throughput fluorescence-based DNA joining assay, non-specific inhibitor control; type: biochemical, bacteriophage T4; details: 100 μM; read-out: In vitro % inhib T4 100
T1 construct: purchased NEB
T1 sequence (P00970 1-487): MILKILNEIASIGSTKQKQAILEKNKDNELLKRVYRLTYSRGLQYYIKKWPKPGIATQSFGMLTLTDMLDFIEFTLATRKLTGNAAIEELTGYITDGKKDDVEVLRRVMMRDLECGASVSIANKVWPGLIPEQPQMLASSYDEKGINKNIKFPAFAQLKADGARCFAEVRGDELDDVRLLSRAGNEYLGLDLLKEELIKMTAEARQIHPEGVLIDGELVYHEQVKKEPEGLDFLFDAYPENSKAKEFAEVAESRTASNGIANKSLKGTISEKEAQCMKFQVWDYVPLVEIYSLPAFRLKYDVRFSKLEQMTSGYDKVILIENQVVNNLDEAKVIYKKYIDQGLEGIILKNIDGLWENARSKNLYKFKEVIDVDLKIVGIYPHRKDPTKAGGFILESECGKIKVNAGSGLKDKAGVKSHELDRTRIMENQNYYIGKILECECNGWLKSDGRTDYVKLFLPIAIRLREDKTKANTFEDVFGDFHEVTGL
Protocol: (§1) Candidate ligase inhibitors identified by CADD were assayed for their ability to inhibit hLigI and T4 DNA ligase using a high-throughput, fluorescence energy transfer-based DNA joining assay (22). Duplicate reactions (30 μL) containing 10 pmol of nicked DNA substrate and either 0.25 pmol of hLigI or 10 units of T4 DNA ligase were incubated in the presence or absence of 100 μmol/L of the putative inhibitor. DNA binding by the candidate DNA ligase inhibitors was measured by displacement of ethidium bromide from DNA as previously described (30).
In addition, to identify compounds that may be non-specific inhibitors of DNA joining, the 192 compounds were also assayed for their ability to inhibit bacteriophage T4 DNA ligase, an enzyme that utilizes the same reaction mechanism as hLigI, has similar adenylation and OB-fold domains but lacks a DBD domain. (6) Although this is also an ATP-dependent DNA ligase, it lacks the domain containing the binding pocket targeted by the in silico screen. Compounds that inhibited T4 DNA ligase were eliminated as non-specific inhibitors that most likely bind to the DNA.

hLigI = molecular target: T2, hLigI (Homo sapiens, UniProt P18858); experiment: High-throughput fluorescence-based DNA joining (ligation) assay; type: biochemical
T2 construct: made in house
T2 sequence (P18858 whole entry): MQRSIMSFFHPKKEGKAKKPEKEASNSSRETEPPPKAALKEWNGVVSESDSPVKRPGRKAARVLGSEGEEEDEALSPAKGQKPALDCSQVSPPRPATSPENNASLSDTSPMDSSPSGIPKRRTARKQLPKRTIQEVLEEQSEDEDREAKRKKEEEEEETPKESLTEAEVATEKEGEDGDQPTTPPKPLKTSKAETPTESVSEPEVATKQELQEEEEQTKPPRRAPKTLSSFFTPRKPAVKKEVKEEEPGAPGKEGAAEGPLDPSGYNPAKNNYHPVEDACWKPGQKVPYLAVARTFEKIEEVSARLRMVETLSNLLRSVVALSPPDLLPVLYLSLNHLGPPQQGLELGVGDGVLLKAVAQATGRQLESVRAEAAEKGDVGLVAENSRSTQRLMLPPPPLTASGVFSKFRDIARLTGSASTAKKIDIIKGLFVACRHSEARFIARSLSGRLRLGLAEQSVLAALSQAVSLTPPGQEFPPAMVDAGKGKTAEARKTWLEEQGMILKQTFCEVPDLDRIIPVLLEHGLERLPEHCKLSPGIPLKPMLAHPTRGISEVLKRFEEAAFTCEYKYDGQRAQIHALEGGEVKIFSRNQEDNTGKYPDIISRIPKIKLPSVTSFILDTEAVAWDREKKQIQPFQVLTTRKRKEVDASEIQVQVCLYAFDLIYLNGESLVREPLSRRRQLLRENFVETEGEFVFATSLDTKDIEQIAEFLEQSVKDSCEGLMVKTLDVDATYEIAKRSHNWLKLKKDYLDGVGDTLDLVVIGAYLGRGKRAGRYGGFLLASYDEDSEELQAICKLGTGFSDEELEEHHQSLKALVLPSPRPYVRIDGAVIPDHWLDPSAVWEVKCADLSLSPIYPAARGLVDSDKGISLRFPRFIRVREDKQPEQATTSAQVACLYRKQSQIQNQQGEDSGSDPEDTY
Protocol: as §1
(§2) The method for screening compounds comprises testing the compound for the ability to inhibit human DNA ligases I, III and IV with a high throughput fluorescence-based ligation assay. In this assay, phosphodiester bond formation covalently links together two oligonucleotides, one of which is a fluorescent donor AF488 that is 11 nucleotides from the 3′ terminus and the other contains a fluorescence acceptor and quencher, BHQ1 that is 15 nucleotides from the 5′ terminus. When these oligonucleotides are present in separate duplexes and in the same nicked or intact duplex, there is no significant quenching of fluorescence because the donor and acceptor are too far apart. As single-strands neither the AF488 oligonucleotide nor the BHQ1 oligonucleotides have significant secondary structure. However, when these oligonucleotides are ligated together, the resultant single strand forms a stable hairpin structure, in which the AF488 and BHQ1 groups are very close together, resulting in efficient intra-molecular quenching of fluorescence. Thus, in the DNA joining assay, the DNA substrate is denatured after incubation with the DNA ligase and then renatured in the presence of a 20-fold excess of an oligonucleotide that is identical to the ligated strand containing the fluorescent door and acceptor except that it lacks these modifications. Using this assay, DNA joining, which results in reduced fluorescence at 518 nm, can be measured rapidly, quantitatively and with high-throughput using a fluorescence plate reader.
(§3) Applicants developed a novel high throughput fluorescence-based ligation assay by modifying the sequence of the oligos to optimize hairpin formation by the single strand ligated product of the high throughput fluorescence-based ligation assay of Chen et al (22). […] Compound stock solutions, which were 10 mM in 0.5% DMSO, were diluted in 0.5% DMSO. Human DNA ligases I and III were assayed with a nicked DNA substrate whereas as the substrate for human DNA ligase IV was two oligonucleotide duplexes with short complementary single strand ends.

human DNA ligase IV = human DNA ligase IV (Homo sapiens, UniProt P49917); experiment: as above; type: biochemical
human DNA ligase IV, sequence (P49917 whole entry): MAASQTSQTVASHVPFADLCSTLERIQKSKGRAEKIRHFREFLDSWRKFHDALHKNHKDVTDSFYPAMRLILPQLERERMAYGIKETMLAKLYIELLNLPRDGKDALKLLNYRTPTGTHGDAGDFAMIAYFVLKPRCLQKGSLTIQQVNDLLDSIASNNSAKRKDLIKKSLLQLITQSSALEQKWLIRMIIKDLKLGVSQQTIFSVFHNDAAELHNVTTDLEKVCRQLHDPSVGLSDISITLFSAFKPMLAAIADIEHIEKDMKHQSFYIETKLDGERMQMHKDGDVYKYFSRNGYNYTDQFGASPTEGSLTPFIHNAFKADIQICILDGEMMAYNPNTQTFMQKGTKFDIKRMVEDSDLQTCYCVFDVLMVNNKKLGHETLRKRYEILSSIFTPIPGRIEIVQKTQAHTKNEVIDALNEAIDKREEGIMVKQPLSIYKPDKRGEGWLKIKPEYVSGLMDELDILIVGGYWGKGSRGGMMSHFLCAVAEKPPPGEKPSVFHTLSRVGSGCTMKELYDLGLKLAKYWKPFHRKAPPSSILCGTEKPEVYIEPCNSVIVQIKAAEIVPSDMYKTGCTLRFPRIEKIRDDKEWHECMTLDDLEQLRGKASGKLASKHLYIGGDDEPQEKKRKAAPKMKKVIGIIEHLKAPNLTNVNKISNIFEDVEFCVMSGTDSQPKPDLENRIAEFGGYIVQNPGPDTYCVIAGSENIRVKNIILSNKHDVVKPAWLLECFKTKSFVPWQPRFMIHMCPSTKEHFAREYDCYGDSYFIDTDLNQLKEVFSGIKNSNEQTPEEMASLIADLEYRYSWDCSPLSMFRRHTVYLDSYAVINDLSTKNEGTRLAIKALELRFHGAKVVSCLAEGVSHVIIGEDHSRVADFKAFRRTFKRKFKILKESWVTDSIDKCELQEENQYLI
human DNA ligase IV, sequence (Q13426 whole entry partner): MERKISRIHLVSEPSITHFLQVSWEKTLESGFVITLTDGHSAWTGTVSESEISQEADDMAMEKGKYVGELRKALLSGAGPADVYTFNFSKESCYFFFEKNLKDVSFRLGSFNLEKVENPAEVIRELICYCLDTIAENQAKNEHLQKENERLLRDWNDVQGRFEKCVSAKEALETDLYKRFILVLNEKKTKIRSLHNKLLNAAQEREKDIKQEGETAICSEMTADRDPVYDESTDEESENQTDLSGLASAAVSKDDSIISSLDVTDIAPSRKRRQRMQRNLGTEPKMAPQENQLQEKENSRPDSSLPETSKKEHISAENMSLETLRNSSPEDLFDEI
Excerpt: as §2, §3

human DNA ligase III = molecular target: T3, human DNA ligase III (Homo sapiens, UniProt P49916); experiment: as above; type: biochemical
T3 sequence (P49916 1-862 isoform P49916-4): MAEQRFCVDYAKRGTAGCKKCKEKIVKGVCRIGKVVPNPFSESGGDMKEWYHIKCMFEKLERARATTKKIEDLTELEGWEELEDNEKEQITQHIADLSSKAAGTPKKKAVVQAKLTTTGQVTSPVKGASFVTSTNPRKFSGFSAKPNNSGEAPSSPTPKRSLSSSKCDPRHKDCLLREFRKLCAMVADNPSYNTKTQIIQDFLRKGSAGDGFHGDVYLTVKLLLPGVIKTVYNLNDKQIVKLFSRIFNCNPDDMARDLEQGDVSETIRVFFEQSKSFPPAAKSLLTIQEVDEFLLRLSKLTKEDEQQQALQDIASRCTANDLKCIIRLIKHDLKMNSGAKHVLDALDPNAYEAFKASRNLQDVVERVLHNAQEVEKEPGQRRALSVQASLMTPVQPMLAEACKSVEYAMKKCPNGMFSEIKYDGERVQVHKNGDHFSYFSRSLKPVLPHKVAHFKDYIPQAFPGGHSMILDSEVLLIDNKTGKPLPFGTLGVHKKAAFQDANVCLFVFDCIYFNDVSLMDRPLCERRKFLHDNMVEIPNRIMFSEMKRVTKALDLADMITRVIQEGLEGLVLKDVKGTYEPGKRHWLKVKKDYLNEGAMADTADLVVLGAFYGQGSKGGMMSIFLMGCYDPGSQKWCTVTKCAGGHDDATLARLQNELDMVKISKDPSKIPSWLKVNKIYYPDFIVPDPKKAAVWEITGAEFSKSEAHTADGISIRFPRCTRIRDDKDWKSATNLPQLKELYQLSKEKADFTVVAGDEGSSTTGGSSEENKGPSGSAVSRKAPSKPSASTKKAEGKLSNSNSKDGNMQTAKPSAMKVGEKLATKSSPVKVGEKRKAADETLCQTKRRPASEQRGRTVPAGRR
Excerpt: as §2, §3

MCF10A cells = experiment: MTT cell growth assay; type: cell-based, human; details: Homo sapiens, MCF-10A; sections 'high concentrations (~50 μM)' and 'active in vitro that decreased cell growth'; same figures given in μM elsewhere in Table 6; read-out: IC50 MCF10A (head without unit)
Protocol: (§4) The activity of hits from the initial screen was further validated using the MTT assay. Briefly, MCF10A and HCT116 cells were seeded in 96 well plates at 300 and 1200 cells per well, respectively, and allowed to adhere overnight. The following day, serial dilutions of compounds in media were added to the cells in a final volume 200 μl. After incubation for 5 days, MTT reagent (3-(4,5-dimthylthiazol-2-yl)-2,5-diphenyltatrazolium) was added and incubation was continued for 4 h. Formazan crystals generated by reduction of the MTT reagent in mitochondria were solubilized with isopropanol prior to the measurement of absorbance at 560 nm wavelength in a plate reader.
To extend the results of the […] cell culture screening assay, a subset of compounds were tested in larger cultures. Different concentrations of Compounds 67 and 151 were added to asynchronous subconfluent populations of HCT116 and MCF10A cells. Asynchronous subconfluent populations of HCT116 and MCF10A cells were pre-treated with different concentrations of compound 64 prior to the addition of 3 aminobenzamide (2 mM) MMS (100 μM) or cis-platinum (1 μM). After incubation for 5 days, cell growth was measured by the MTT assay (16).

HCT116 cells [2] = experiment: Screen for potentiation of DNA damaging agents (MMS, camptothecin, cis-platinum, 3 aminobenzamide, ionizing radiation); type: cell-based, human; details: compound alone vs combination with MMS (100 μM); 1 = no sensitization
Excerpt: The 192 human DNA ligase inhibitors were screened in parallel for effects on proliferation and the ability to potentiate the effects of several DNA damaging agents using two cell human lines, a colon cancer line HCT116 and a normal breast epithelial cell line MCF10A using a Biomek FX Laboratory Automation Workstation as described (23). The DNA damaging agents used, methyl methanesulfonate (MMS), camptothecin, cis-platinum, 3 aminobenzamide and ionizing radiation, are representatives of classes of agents used to treat cancer. Briefly, HCT116 and MCF10A cells were plated in 96 well plates such that the cultures were about 80% confluent after 5 days incubation. Compounds were added to the cultures at either 15 μM or 50 μM 1 day after plating. After incubation for 3 days, cell lysed in a solution containing 1.2% Igepal CA-630 and SYBR green that stains DNA (1:1000, Molecular Probes, Eugene, Oreg.). Subsequently, fluorescence was measured per well. The studies with DNA damaging agents were performed as follows. […] For ionizing radiation, cells were pre-incubated with the compounds at 50 μM for 1 hour prior to exposure to 2 gray of ionizing radiation. Cultures were incubated for 3 days and then treated as above.

HCT116 cells [3] = experiment: MTT cell growth assay; type: cell-based, human; details: Homo sapiens, HCT-116
Protocol: as §4
After incubation for 5 days, cell growth was measured by the MTT assay (16).

Row | SMILES | EC50 [1] [µM] | inhibition at 100 µM (T4 DNA ligase) [%] | % activity Inhibition hLigI 100 uM (hLigI; 100 uM) | inhibition at 100 µM (hLigI; read-out: In vitro % inhib hLigI 100) [%] | inhibition at 100 µM (human DNA ligase IV; read-out: In vitro % inhib hLigIV 100) [%] | % activity Inhibition hLigIV 100 uM (human DNA ligase IV; 100 uM, Ø not defined (0 in Table 5A)) | inhibition at 100 µM (human DNA ligase III; 100 μM, read-out: In vitro % inhib hLigIII 100) [%] | inhibition at 100 µM (human DNA ligase III; 100 uM, Ø not defined (0 in Table 5A), read-out: % activity Inhibition hLigIII 100 uM) [%] | inhibition of human DNA ligase III, in words (human DNA ligase III; in vitro screen) | IC50 (MCF10A cells) [µM] | MMS: Ratios of IC50 HCT116 (HCT116 cells [2]) | inhibition at 100 µM (hLigI; read-out: % of inhibition @ 100 μM (Helen's data) hLigI) [%] | inhibition at 100 µM (human DNA ligase IV; read-out: % of inhibition @ 100 μM (Helen's data) hLigIV) [%] | inhibition at 100 µM (human DNA ligase III; read-out: % of inhibition @ 100 μM (Helen's data) hLigIII) [%] | IC50 (HCT116 cells [3]; cell growth, compound alone, read-out: IC50 (μM) HCT116) [µM] | IC50 (HCT116 cells [3]; sections 'high concentrations (~50 μM)' and 'active in vitro that decreased cell growth', same figures given in μM elsewhere in Table 6, read-out: IC50 HCT116 (head without unit)) [µM]
1 | N#Cc1cn(CCCCCCCc2[nH]c(=O)[nH]c(=O)c2C#N)c(=O)[nH]c1=O [Compound 209] | > 100 | 0 | Ø | 0 | 0 | Ø | 71 ± 3 | 70.5 ± 2.6 | specific for DNA ligase III | – | – | – | – | – | – | –
2 | O=C(COC(=O)c1ccc2ccccc2c1O)c1cccs1 [Compound 214] | – | – | – | – | – | – | – | – | – | > 50 | ID (2) | < 20 | 40 | 42 | 10 to 50 | 10 to 50
